The target of one assay is T1, HDAC10 (Homo sapiens, UniProt Q969S8).
T1 sequence (Q969S8 1-669): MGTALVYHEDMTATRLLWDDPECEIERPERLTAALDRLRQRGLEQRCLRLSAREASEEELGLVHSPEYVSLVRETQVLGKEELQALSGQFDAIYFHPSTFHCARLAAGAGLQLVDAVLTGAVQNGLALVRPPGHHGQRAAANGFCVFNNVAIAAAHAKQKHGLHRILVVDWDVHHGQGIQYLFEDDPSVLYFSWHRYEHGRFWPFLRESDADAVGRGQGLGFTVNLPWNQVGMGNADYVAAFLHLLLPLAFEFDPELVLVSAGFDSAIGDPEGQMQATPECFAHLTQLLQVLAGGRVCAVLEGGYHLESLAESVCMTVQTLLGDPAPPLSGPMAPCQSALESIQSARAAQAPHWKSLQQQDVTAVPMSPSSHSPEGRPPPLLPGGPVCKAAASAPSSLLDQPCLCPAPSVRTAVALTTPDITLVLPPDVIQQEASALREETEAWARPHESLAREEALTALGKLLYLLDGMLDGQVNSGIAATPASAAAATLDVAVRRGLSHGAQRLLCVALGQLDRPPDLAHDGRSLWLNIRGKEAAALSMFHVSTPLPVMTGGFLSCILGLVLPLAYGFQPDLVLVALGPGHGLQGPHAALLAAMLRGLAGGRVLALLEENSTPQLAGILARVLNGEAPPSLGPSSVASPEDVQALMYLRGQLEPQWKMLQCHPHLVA
The assay is described as follows: In vitro HDAC inhibition assay, HDAC10. The conditions noted are these: NI = No inhibition at a concentration of 50 pM (footnote b); read-out: HDAC isoform IC50, HDAC10. Format: biochemical.

The target of the next assay is HDAC2 (Homo sapiens, UniProt Q92769). The assay is described as follows: In vitro HDAC inhibition assay, HDAC2. Format: biochemical. The conditions noted are these: NI = No inhibition at a concentration of 50 pM (footnote b); read-out: HDAC isoform IC50, HDAC2.
The target in a further assay is Human HDAC1 (Homo sapiens, UniProt Q13547). The assay is described as follows: In vitro HDAC inhibition assay, HDAC1.
A further assay concerns the target T2, Human HDAC6 (Homo sapiens, UniProt Q9UBN7).
T2 construct: Full length with N-terminal GST tag, MW=159 kDa; GST (N); host or cells: baculovirus expression system, Sf9 cells
T2 sequence (Q9UBN7 1-1215): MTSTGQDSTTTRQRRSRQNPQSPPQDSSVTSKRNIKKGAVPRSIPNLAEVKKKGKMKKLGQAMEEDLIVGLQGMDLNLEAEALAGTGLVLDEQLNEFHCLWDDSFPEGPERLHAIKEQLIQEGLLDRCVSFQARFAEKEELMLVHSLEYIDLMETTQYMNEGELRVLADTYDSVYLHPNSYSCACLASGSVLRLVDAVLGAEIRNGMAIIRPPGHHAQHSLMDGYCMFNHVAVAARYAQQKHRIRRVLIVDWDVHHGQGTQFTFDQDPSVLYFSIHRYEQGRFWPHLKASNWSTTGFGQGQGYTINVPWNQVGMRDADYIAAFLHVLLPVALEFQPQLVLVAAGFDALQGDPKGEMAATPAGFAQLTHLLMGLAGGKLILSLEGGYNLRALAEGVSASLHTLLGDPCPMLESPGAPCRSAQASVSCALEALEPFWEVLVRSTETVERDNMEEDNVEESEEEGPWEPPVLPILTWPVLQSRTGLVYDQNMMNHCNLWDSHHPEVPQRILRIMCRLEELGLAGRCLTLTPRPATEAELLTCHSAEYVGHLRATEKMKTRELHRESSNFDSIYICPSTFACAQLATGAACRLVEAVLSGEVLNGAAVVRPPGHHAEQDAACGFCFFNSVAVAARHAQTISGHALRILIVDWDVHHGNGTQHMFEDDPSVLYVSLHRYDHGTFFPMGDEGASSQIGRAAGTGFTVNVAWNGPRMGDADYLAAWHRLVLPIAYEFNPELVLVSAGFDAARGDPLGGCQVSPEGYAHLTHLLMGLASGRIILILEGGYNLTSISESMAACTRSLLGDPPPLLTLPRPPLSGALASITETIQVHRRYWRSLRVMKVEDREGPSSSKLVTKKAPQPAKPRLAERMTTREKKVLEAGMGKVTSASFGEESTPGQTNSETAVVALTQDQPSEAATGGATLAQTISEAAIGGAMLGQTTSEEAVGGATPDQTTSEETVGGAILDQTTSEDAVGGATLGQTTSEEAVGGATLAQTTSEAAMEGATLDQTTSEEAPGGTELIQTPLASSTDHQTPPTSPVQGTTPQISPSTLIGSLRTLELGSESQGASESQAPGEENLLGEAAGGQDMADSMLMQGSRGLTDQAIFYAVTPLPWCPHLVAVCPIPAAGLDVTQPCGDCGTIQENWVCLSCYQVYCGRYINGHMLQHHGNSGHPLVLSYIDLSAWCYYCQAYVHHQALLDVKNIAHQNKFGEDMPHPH
Put plainly: In vitro HDAC inhibition assay, HDAC6. The format is biochemical. The following applies: read-out: HDAC isoform IC50, HDAC6.

The next assay addresses HDAC3/NcoR2 complex (Homo sapiens, UniProt O15379). Put plainly: In vitro HDAC inhibition assay, HDAC3. Format: biochemical. The following applies: NI = No inhibition at a concentration of 50 pM (footnote b); read-out: HDAC isoform IC50, HDAC3.
The next assay has as its system BxPC3. Put plainly: In vitro growth inhibition (GI), MTS cell proliferation assay (Table 5), BxPC3. Format: cell-based. The conditions noted are these: Homo sapiens, BXPC-3, 72 hours post-treatment. In general terms: Tetrazolium assays rely on reduction of a dye to a coloured formazan, in cell work by metabolically active cells.
A further assay deals with L3.6pl. The assay is described as follows: In vitro growth inhibition (GI), MTS cell proliferation assay (Table 5), L3.6pl. Format: cell-based. The following applies: Homo sapiens, 72 hours post-treatment.
The subject of a further assay is PANC1 cells. The assay is described as follows: Scratch-wound cell migration assay. Format: cell-based. The conditions noted are these: for Inhibition of cell migration, 24 h: PANC1, 24 h post wounding; for Inhibition of cell migration, 48 h: PANC1, 48 h post wounding. Also noted: key to Inhibition of cell migration, 24 h / Inhibition of cell migration, 48 h: Level of inhibition (high to low): +++, ++ or +; Level of inhibition (high to low): +++, ++ or +; Level of inhibition (high to low): +++, ++ or +; no inhibition: −. As to the method:
FIG. 2 contains photographs of PANC1 cells treated with present compounds 9 and 6 taken 24 and 48 hours (post wounding) after a scratch was made through a confluent layer of cells; and
PANC1 Cell migration and effect on T and NK Cells. The effect of HDAC6 inhibition on cell migration and cellular cytotoxicity was evaluated. […] Thus, these HDAC6-selective inhibitors could function well to block metastasis. However, in contrast to the effect observed on cell migration, none of the compounds tested affected CD8+ T cell or natural killer (NK) cell-mediated cytotoxicity, despite the ability of the compounds to substantially increase the levels of acetyl-tubulin in these cell lines.

The test system of another assay is acetylated alpha-tubulin. Put plainly: Accumulation of acetylated alpha-tubulin in pancreatic cancer cells. The format is cell-based. The following applies: FIG. 1A. An excerpt: Cell cycle and inhibition of alpha-tubulin deacetylation.
[1] abbreviates: read-out: HDAC isoform IC50, HDAC1, NI = No inhibition at a concentration of 50 pM (footnote b).

Read-outs that look alike come from different tables or passages of the source.

Chain of Human HDAC1 (Q13547 whole entry): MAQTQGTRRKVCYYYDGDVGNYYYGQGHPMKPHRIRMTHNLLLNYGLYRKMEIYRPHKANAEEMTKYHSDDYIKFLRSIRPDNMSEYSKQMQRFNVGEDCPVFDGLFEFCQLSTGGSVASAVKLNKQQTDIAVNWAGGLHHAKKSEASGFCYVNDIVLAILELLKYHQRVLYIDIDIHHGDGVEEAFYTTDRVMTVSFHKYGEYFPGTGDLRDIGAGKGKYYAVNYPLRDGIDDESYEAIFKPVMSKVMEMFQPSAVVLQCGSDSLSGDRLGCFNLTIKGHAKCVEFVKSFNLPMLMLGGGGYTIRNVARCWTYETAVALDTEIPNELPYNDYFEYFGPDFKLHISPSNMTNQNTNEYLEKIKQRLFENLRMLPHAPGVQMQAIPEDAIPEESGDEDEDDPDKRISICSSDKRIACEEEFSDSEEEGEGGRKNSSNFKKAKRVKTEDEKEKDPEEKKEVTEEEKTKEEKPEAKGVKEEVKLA
Chain of HDAC2 (Q92769 whole entry, canonical isoform): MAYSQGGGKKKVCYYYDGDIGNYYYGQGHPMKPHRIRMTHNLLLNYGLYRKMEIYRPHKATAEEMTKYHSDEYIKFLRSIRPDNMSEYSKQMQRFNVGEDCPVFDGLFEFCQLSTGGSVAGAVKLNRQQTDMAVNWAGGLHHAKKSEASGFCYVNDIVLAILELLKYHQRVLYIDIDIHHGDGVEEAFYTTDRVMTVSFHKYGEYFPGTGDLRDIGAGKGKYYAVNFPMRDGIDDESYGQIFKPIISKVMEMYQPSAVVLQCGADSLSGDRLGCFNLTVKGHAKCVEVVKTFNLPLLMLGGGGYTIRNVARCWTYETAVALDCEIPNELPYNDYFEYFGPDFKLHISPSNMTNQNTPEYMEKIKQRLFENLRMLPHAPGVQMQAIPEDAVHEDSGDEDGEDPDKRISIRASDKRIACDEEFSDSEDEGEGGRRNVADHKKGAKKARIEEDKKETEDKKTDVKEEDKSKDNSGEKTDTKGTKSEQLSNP
Chain of HDAC3/NcoR2 complex (O15379 whole entry, canonical isoform): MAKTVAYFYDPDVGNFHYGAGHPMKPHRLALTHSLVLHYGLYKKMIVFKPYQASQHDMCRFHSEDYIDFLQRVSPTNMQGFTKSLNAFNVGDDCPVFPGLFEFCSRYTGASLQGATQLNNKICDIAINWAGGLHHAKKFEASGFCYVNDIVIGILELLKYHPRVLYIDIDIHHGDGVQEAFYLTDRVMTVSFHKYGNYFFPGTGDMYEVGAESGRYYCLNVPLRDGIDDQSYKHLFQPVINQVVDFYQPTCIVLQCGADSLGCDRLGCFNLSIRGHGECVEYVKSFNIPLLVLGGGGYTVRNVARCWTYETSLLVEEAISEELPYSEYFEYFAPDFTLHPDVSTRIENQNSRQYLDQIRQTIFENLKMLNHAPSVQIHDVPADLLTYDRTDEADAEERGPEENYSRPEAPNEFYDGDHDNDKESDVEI
Chain of HDAC3/NcoR2 complex (Q9Y618 395-489 partner limits assumed): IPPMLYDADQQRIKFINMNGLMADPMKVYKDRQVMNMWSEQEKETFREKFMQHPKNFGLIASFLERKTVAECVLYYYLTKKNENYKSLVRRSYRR

The IC50 is the point on the concentration scale where inhibition reaches its midpoint. Consider `CC(C)(C)OC(=O)Nc1ccc(-c2csc(NC(=O)CCCc3cc(C(=O)NO)no3)n2)cc1` [Compound 3, (4-{2-[4-(3-Hydroxycarbamoyl-isoxazol-5-yl)-butyrylamino]-thiazol-4-yl}-phenyl)-carbamic acid tert-butyl ester], for which the 50% inhibitory concentration (IC50) at HDAC10 was found to be 52.9 nM; at HDAC2, 1140 nM; at Human HDAC1 (setting [1]), 401 nM; at Human HDAC6, 41.2 nM; on HDAC3/NcoR2 complex, 448 nM.

For orientation: GI50 means the concentration at which growth is held to half of that of the control. As to `CCOC(=O)Nc1cccc(-c2csc(NC(=O)CCc3cc(C(=O)NO)no3)n2)c1` [Compound 5, (3-{2-[3-(3-Hydroxycarbamoyl-isoxazol-5-yl)-propionylamino]-thiazol-4-yl}-phenyl)-carbamic acid ethyl ester], the figures for the GI50 with BxPC3 and in the assay with L3.6pl were 7000 nM and 2100 nM, respectively. The half-inhibitory concentration (IC50) on HDAC10 was found to be 271 nM; at HDAC2, 1100 nM; on Human HDAC1 (setting [1]) it was 266 nM; on Human HDAC6 it was 3.3 nM; on HDAC3/NcoR2 complex it was 107 nM.

As for `CC(C)(C)OC(=O)Nc1cccc(-c2cc(C(=O)NCCc3cc(C(=O)NO)no3)no2)c1` [Compound 7, (3-{3-[2-(3-Hydroxycarbamoyl-isoxazol-5-yl)-ethylcarbamoyl]-isoxazol-5-yl}-phenyl)-carbamic acid tert-butyl ester], the 50% growth inhibitory concentration (GI50) in the assay with BxPC3 and with L3.6pl was more than 50000 nM throughout. The figures for the half-maximal inhibitory concentration (IC50) at Human HDAC1, on Human HDAC6 and at HDAC3/NcoR2 complex were 54000 nM, 7.7 nM and 98800 nM, respectively. The “Inhibition of cell migration, 24 h” value in the assay on PANC1 cells is reported as “+”. Besides, the “Inhibition of cell migration, 48 h” value with PANC1 cells is “+”.

Regarding `CCOC(=O)Nc1ccc(-c2cc(C(=O)NCCc3cc(C(=O)NO)no3)no2)cc1` [Compound 8, (4-{3-[2-(3-Hydroxycarbamoyl-isoxazol-5-yl)-ethylcarbamoyl]-isoxazol-5-yl}-phenyl)-carbamic acid ethyl ester], the figures for the GI50 in the assay on BxPC3 and in the assay on L3.6pl were more than 50000 nM and 47000 nM, respectively. Moreover, the half-maximal inhibitory concentration (IC50) at HDAC10 was 12500 nM; at HDAC2 it was 41300 nM; on Human HDAC1 (setting [1]) it was 3910 nM; on Human HDAC6 it was 101 nM; on HDAC3/NcoR2 complex, 5190 nM.

For the compound `CC(C)(C)C(=O)Nc1cccc(-c2cc(C(=O)NCCc3cc(C(=O)NO)no3)no2)c1` [Compound 10, 5-[2-({5-[3-(2,2-Dimethyl-propionylamino)-phenyl]-isoxazole-3-carbonyl}-amino)-ethyl]-isoxazole-3-carboxylic acid hydroxyamide], the IC50 on HDAC10 was found to be 40100 nM; on Human HDAC1, 76000 nM; on Human HDAC6 it was 21.2 nM. Moreover, the “Inhibition of cell migration, 24 h” value in the assay on PANC1 cells was “−”. The “Inhibition of cell migration, 48 h” value with PANC1 cells was “−”. Also, the “Accumulation of acetylated alpha-tubulin” value with acetylated alpha-tubulin is “accumulation of acetylated alpha-tubulin”.

Consider `O=C(NO)c1cc(CCNC(=O)c2cc(-c3cccc(NC(=O)C4CCCCC4)c3)on2)on1` [Compound 11], for which the concentration for 50% growth inhibition (GI50) in the assay with BxPC3 and with L3.6pl was more than 50000 nM in each case. The “Inhibition of cell migration, 24 h” value in the assay with PANC1 cells is reported as “+”. The “Inhibition of cell migration, 48 h” value in the assay on PANC1 cells is “−”. In addition, the “Accumulation of acetylated alpha-tubulin” value in the assay with acetylated alpha-tubulin is listed as “accumulation of acetylated alpha-tubulin”. For the same compound, the IC50 at Human HDAC6 amounted to 6.7 nM.

Take `O=C(NO)c1ccc(CNC(=O)c2cc(-c3ccc(NC(=O)C4CCCCC4)cc3)on2)cc1` [Compound 16, 5-[4-(Cyclohexanecarbonyl-amino)-phenyl]-isoxazole-3-carboxylic acid 4-hydroxycarbamoyl-benzylamide]: the IC50 on HDAC10 stood at 204 nM; on HDAC2 it was 2490 nM; on Human HDAC1 (setting [1]), 350 nM; at Human HDAC6, 5.4 nM; on HDAC3/NcoR2 complex, 215 nM.

Take `O=C(NO)c1ccc(CNC(=O)c2cc(-c3cccc(NC(=O)C4CCCCC4)c3)on2)cc1` [Compound 17, 5-[3-(Cyclohexanecarbonyl-amino)-phenyl]-isoxazole-3-carboxylic acid 4-hydroxycarbamoyl-benzylamide]: the half-inhibitory concentration (IC50) at HDAC10 is 191 nM; on HDAC2 it was 4300 nM; on Human HDAC1 (setting [1]) it was 212 nM; on Human HDAC6, 2.6 nM; at HDAC3/NcoR2 complex, 669 nM.

For the compound `O=C(NC(Cc1cc(C(=O)NO)no1)Cc1c[nH]c2ccccc12)c1ccc(Cl)cc1` (centres unmarked) [Compound 19, 5-[2-(4-Chloro-benzoylamino)-3-(1H-indol-3-yl)-propyl]-isoxazole-3-carboxylic acid hydroxyamide], the IC50 was found to be 46600 nM at Human HDAC1, 430 nM at Human HDAC6 and 37800 nM at HDAC3/NcoR2 complex.

For the compound `O=C(NO)c1cc(CC(Cc2c[nH]c3ccccc23)NC(=O)C(F)(F)F)on1` (centres unmarked) [Compound 20, 5-[3-(1H-Indol-3-yl)-2-(2,2,2-trifluoro-acetylamino)-propyl]-isoxazole-3-carboxylic acid hydroxyamide], the IC50 came to 3050 nM on Human HDAC6 and 41600 nM at HDAC3/NcoR2 complex.

`COc1ccc(C(=O)NC(Cc2cc(C(=O)NO)no2)Cc2c[nH]c3ccccc23)cc1OC` (centres unmarked) [Compound 21, 5-[2-(3,4-Dimethoxy-benzoylamino)-3-(1H-indol-3-yl)-propyl]-isoxazole-3-carboxylic acid hydroxyamide]: the results for the IC50 on Human HDAC1, on Human HDAC6 and on HDAC3/NcoR2 complex were 49900 nM, 721 nM and 54100 nM, respectively.
